Test results from ChEMBL document CHEMBL1177794, “Broad spectrum alkynyl inhibitors of T315I Bcr-Abl” (Bioorg Med Chem Lett, 2010).

Experiments:
[1] = target: Eukaryotic translation initiation factor 2-alpha kinase 1 (Homo sapiens) (UniProt Q9BQI3); experiment: Inhibition of EIF2AK1 at 10 uM; conditions: values are per cent of control
[2] = target: Epidermal growth factor receptor (Homo sapiens) (UniProt P04626+P00533+Q15303+P21860); experiment: Inhibition of EGFR S752-I759del mutant at 10 uM; values are per cent of control
[3] = target: Hepatocyte growth factor receptor (Homo sapiens) (UniProt P08581); experiment: Inhibition of MET at 10 uM
[4] = target: Mitogen-activated protein kinase 10 (Homo sapiens) (UniProt P53779); experiment: Inhibition of JNK3 at 10 uM; values are per cent of control
Mitogen-activated protein kinase 10 (Homo sapiens), sequence (P53779 whole entry): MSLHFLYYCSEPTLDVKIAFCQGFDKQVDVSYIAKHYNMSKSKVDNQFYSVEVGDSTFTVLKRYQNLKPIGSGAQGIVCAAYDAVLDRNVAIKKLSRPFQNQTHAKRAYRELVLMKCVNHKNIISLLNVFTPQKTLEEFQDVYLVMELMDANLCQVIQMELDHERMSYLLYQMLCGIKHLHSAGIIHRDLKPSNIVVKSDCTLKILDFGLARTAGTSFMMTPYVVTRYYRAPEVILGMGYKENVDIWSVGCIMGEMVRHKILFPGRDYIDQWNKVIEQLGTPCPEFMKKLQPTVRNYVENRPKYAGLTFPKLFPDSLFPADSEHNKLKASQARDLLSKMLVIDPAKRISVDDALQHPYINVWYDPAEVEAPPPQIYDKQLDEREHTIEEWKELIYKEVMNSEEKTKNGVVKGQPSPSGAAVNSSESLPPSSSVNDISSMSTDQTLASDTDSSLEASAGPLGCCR

[5] = target: Homeodomain-interacting protein kinase 2 (Homo sapiens) (UniProt Q9H2X6); experiment: Inhibition of HIPK2 at 10 uM; conditions: values are per cent of control
[6] = target: Fibroblast growth factor receptor 4 (Homo sapiens) (UniProt P22455); experiment: Inhibition of FGFR4 at 10 uM; conditions: values are per cent of control
Fibroblast growth factor receptor 4 (Homo sapiens), sequence (P22455 22-802 limits assumed): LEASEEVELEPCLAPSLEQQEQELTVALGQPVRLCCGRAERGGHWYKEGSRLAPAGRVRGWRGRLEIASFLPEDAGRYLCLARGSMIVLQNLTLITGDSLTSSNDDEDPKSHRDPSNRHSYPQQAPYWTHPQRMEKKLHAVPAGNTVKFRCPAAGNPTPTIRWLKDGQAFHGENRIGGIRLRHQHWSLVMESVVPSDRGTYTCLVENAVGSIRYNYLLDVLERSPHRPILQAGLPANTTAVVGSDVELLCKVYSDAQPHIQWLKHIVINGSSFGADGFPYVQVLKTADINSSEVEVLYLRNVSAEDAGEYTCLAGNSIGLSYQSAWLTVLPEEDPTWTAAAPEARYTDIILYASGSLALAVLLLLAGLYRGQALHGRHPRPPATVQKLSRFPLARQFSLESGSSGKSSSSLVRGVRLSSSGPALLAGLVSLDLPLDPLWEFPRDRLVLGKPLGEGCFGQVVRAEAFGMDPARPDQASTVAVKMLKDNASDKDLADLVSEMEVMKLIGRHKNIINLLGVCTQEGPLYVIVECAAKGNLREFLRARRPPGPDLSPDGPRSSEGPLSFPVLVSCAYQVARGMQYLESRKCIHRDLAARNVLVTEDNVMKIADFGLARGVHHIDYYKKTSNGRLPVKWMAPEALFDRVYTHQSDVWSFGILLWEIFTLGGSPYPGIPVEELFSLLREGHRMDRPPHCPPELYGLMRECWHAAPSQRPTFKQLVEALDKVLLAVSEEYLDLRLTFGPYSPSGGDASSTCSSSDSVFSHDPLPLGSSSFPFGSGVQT

[7] = target: Cyclin-dependent kinase 3 (Homo sapiens) (UniProt Q00526); experiment: Inhibition of CDK3 at 10 uM; values are per cent of control
[8] = target: Serine/threonine-protein kinase pim-3 (Homo sapiens) (UniProt Q86V86); experiment: Inhibition of PIM3 at 10 uM
[9] = target: Mitogen-activated protein kinase kinase kinase 1 (Homo sapiens) (UniProt Q13233); experiment: Inhibition of MAP3K1 at 10 uM; conditions: values are per cent of control
Mitogen-activated protein kinase kinase kinase 1 (Homo sapiens), sequence (Q13233 whole entry): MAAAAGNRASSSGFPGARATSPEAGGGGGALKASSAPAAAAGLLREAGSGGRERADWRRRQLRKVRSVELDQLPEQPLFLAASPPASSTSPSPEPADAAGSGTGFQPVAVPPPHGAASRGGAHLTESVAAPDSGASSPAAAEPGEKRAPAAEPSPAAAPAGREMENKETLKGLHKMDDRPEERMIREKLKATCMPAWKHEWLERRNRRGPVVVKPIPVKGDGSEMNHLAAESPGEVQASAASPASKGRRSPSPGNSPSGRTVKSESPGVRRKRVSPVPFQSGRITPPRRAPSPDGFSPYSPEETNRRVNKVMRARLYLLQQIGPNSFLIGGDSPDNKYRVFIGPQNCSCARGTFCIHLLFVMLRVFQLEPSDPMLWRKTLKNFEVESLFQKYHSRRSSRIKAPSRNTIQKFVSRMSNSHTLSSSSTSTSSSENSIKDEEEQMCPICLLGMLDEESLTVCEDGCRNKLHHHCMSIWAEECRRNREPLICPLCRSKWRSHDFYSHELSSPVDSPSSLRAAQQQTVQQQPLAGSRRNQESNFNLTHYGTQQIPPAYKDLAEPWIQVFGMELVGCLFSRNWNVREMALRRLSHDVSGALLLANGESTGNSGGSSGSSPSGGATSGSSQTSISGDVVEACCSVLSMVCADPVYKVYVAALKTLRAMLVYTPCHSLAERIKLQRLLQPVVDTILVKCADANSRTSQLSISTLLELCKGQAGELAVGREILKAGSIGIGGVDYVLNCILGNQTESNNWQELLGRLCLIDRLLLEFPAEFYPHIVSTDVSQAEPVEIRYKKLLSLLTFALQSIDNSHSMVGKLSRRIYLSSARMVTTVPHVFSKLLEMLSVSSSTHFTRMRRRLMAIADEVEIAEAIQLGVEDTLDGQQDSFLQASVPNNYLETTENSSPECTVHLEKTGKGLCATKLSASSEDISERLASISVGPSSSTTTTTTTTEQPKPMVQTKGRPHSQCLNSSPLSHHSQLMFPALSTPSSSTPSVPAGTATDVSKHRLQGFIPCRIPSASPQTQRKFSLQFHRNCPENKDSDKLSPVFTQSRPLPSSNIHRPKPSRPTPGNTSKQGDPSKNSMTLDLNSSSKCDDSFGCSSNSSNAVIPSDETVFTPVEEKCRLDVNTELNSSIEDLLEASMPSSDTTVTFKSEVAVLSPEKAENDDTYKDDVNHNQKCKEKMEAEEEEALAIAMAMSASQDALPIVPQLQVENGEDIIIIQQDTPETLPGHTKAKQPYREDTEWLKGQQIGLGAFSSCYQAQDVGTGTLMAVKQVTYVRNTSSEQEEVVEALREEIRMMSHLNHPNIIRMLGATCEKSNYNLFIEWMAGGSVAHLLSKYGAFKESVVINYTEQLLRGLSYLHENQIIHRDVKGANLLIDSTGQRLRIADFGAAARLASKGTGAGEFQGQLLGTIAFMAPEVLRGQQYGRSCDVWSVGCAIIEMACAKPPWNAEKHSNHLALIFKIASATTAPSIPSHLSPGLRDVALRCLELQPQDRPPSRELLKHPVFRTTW

[10] = target: Megakaryocyte-associated tyrosine-protein kinase (Homo sapiens) (UniProt P42679); experiment: Inhibition of CTK at 10 uM; conditions: values are per cent of control
[11] = target: Tyrosine-protein kinase receptor UFO (Homo sapiens) (UniProt P30530); experiment: Inhibition of AXL at 10 uM; conditions: values are per cent of control
Tyrosine-protein kinase receptor UFO (Homo sapiens), sequence (P30530 whole entry): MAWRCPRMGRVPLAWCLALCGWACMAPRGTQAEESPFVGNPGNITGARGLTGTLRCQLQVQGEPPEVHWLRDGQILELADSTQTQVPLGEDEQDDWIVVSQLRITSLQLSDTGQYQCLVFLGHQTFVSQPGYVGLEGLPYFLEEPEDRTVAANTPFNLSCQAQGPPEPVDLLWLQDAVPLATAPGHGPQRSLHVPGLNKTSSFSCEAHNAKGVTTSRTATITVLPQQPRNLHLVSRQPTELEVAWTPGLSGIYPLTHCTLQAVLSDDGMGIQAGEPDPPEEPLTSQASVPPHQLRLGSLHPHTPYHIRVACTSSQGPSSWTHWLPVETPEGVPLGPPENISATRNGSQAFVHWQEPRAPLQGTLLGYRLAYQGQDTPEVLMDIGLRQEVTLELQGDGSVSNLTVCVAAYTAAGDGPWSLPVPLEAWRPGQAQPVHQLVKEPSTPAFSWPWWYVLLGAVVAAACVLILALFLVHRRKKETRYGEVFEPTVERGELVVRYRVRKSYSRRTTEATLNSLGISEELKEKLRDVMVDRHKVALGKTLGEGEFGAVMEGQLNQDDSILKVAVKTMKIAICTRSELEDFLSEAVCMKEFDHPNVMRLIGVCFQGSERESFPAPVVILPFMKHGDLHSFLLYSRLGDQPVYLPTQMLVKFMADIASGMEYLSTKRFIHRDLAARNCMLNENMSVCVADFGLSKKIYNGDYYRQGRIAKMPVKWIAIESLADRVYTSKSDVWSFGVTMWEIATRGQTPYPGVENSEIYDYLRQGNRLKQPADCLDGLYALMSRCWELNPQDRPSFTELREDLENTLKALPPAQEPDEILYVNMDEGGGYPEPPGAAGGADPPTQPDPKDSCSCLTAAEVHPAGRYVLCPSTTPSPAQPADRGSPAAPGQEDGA

[12] = target: Muscle, skeletal receptor tyrosine-protein kinase (Homo sapiens) (UniProt O15146); experiment: Inhibition of MUSK at 10 uM
[13] = target: CDK4/Cyclin D3 (Homo sapiens) (UniProt P11802+P30281); experiment: Inhibition of CDK4/cyclin D3 at 10 uM; values are per cent of control
[14] = target: Serine/threonine-protein kinase 26 (Homo sapiens) (UniProt Q9P289); experiment: Inhibition of MST4 at 10 uM
[15] = target: Serine/threonine-protein kinase ULK1 (Homo sapiens) (UniProt O75385); experiment: Inhibition of ULK1 at 10 uM; conditions: values are per cent of control
[16] = target: Epidermal growth factor receptor (Homo sapiens) (UniProt P00533); experiment: Inhibition of EGFR at 10 uM; values are per cent of control
[17] = target: Cyclin-dependent kinase 2 homolog (Plasmodium falciparum (isolate K1 / Thailand)) (UniProt Q07785); experiment: Inhibition of Plasmodium falciparum PFPK5 at 10 uM
[18] = target: Serine/threonine-protein kinase N1 (Homo sapiens) (UniProt Q16512); experiment: Inhibition of PKN1 at 10 uM
[19] = target: Membrane-associated tyrosine- and threonine-specific cdc2-inhibitory kinase (Homo sapiens) (UniProt Q99640); experiment: Inhibition of PKMYT1 at 10 uM
[20] = target: Microtubule-associated serine/threonine-protein kinase 1 (Homo sapiens) (UniProt Q9Y2H9); experiment: Inhibition of MAST1 at 10 uM; conditions: values are per cent of control
[21] = test system: Receptor-type tyrosine-protein kinase FLT3 (Homo sapiens), P36888 [D835Y]; experiment: Inhibition of FLT3 D835Y mutant at 10 uM; conditions: values are per cent of control
[22] = target: Serine/threonine-protein kinase mTOR (Homo sapiens) (UniProt P42345); experiment: Inhibition of MTOR at 10 uM; values are per cent of control
[23] = target: Cyclin-dependent kinase 17 (Homo sapiens) (UniProt Q00537); experiment: Inhibition of PCTK2 at 10 uM; conditions: values are per cent of control
Cyclin-dependent kinase 17 (Homo sapiens), sequence (Q00537 whole entry, looked up): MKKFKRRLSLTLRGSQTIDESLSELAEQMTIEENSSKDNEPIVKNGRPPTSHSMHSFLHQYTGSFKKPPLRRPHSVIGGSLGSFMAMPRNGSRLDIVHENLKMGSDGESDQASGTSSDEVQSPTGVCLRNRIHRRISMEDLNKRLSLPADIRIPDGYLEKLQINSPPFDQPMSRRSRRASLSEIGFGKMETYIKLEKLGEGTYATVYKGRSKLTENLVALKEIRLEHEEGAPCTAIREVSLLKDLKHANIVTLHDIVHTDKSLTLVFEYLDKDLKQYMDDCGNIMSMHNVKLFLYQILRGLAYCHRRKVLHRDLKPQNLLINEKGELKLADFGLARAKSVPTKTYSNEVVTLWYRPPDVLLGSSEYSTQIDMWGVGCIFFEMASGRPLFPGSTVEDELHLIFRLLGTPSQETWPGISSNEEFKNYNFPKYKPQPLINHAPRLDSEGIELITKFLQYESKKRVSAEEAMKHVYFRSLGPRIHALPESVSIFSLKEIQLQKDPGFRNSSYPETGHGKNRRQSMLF

[24] = target: Mitogen-activated protein kinase kinase kinase 2 (Homo sapiens) (UniProt Q9Y2U5); experiment: Inhibition of MAP3K2 at 10 uM; conditions: values are per cent of control
[25] = target: 3-phosphoinositide-dependent protein kinase 1 (Homo sapiens) (UniProt O15530); experiment: Inhibition of PDPK1 at 10 uM
[26] = target: Angiopoietin-1 receptor (Homo sapiens) (UniProt Q02763); experiment: Inhibition of TIE2 at 10 uM; values are per cent of control
[27] = target: Mitogen-activated protein kinase 15 (Homo sapiens) (UniProt Q8TD08); experiment: Inhibition of ERK8 at 10 uM; conditions: values are per cent of control
Mitogen-activated protein kinase 15 (Homo sapiens), sequence (Q8TD08 whole entry): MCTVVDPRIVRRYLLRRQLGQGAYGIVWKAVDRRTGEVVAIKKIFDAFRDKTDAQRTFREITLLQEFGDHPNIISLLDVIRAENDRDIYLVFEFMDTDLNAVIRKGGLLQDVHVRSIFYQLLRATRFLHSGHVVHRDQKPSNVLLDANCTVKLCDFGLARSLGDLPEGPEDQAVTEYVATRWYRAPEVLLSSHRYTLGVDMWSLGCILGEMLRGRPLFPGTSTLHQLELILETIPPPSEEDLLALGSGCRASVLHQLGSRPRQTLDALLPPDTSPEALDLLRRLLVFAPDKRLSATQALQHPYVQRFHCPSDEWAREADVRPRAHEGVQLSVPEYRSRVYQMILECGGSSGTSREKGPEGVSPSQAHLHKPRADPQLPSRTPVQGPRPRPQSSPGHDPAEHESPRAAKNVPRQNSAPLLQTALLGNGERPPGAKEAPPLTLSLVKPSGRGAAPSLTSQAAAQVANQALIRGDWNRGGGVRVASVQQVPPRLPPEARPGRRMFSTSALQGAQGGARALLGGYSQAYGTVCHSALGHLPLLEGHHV

[28] = target: NUAK family SNF1-like kinase 2 (Homo sapiens) (UniProt Q9H093); experiment: Inhibition of SNARK at 10 uM
[29] = target: Serine/threonine-protein kinase BRSK2 (Homo sapiens) (UniProt Q8IWQ3); experiment: Inhibition of BRSK2 at 10 uM; values are per cent of control
[30] = target: Receptor-interacting serine/threonine-protein kinase 2 (Homo sapiens) (UniProt O43353); experiment: Inhibition of RIPK2 at 10 uM; conditions: values are per cent of control
[31] = target: cAMP-dependent protein kinase catalytic subunit alpha (Homo sapiens) (UniProt P17612); experiment: Inhibition of PKAC-alpha at 10 uM; conditions: values are per cent of control
[32] = target: Serine/threonine-protein kinase TAO3 (Homo sapiens) (UniProt Q9H2K8); experiment: Inhibition of TAOK3 at 10 uM
[33] = target: Tyrosine-protein kinase JAK1 (Homo sapiens) (UniProt P23458); experiment: Inhibition of JAK1 JH2 pseudokinase domain at 10 uM; values are per cent of control
[34] = test system: Epidermal growth factor receptor (Homo sapiens), P00533 [T790M]; experiment: Inhibition of EGFR T790M mutant at 10 uM; values are per cent of control
[35] = target: Dual specificity testis-specific protein kinase 1 (Homo sapiens) (UniProt Q15569); experiment: Inhibition of TESK1 at 10 uM
[36] = target: MAP kinase-activated protein kinase 5 (Homo sapiens) (UniProt Q8IW41); experiment: Inhibition of MAPKAPK5 at 10 uM; conditions: values are per cent of control
[37] = target: AP2-associated protein kinase 1 (Homo sapiens) (UniProt Q2M2I8); experiment: Inhibition of AAK1 at 10 uM; conditions: values are per cent of control
[38] = target: Serine/threonine-protein kinase Nek7 (Homo sapiens) (UniProt Q8TDX7); experiment: Inhibition of NEK7 at 10 uM
Serine/threonine-protein kinase Nek7 (Homo sapiens), sequence (Q8TDX7 whole entry, looked up): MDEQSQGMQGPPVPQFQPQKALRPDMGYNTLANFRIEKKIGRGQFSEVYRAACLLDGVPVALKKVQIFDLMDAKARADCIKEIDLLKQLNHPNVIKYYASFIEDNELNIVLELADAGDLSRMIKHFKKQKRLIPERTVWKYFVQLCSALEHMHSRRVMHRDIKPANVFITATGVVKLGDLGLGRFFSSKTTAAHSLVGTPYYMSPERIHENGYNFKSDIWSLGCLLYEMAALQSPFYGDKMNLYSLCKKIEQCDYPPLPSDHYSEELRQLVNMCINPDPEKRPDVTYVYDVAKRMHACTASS

[39] = test system: Tyrosine-protein kinase ABL1 (Homo sapiens), P00519 [F317I]; experiment: Inhibition of non phosphorylated ABL1 F317I mutant at 10 uM; conditions: values are per cent of control
[40] = target: Ephrin type-A receptor 8 (Homo sapiens) (UniProt P29322); experiment: Inhibition of EPHA8 at 10 uM; conditions: values are per cent of control
[41] = target: Protein kinase C theta type (Homo sapiens) (UniProt Q04759); experiment: Inhibition of PRKCQ at 10 uM

CCN1CCN(Cc2ccc(NC(=O)c3ccc(C)c(C#Cc4cccnc4)c3)cc2C(F)(F)F)CC1
residual binding, % of control [1]: 83%
level, % of control [2]: 0.9%
inhibition [3]: 73%
level, % of control [4]: 0.95%
residual binding, % of control [5]: 34%
residual binding, % of control [6]: 0%
level, % of control [7]: 24%
inhibition [8]: 100%
residual binding, % of control [9]: 94%
residual binding, % of control [10]: 35%
residual binding, % of control [11]: 2.9%
inhibition [12]: 0.05%
level, % of control [13]: 54%
inhibition [14]: 21%
residual binding, % of control [15]: 24%
level, % of control [16]: 3%
inhibition [17]: 89%
inhibition [18]: 85%
inhibition [19]: 85%
residual binding, % of control [20]: 100%
residual binding, % of control [21]: 0.5%
level, % of control [22]: 92%
residual binding, % of control [23]: 8.2%
residual binding, % of control [24]: 0.15%
inhibition [25]: 84%
% of control [26]: 0.05%
residual binding, % of control [27]: 1.8%
inhibition [28]: 99%
level, % of control [29]: 81%
residual binding, % of control [30]: 0.45%
residual binding, % of control [31]: 8.4%
inhibition [32]: 0%
level, % of control [33]: 90%
level, % of control [34]: 24%
inhibition [35]: 60%
residual binding, % of control [36]: 95%
residual binding, % of control [37]: 99%
inhibition [38]: 88%
residual binding, % of control [39]: 8.8%
residual binding, % of control [40]: 0%
inhibition [41]: 55%

CCN1CCN(Cc2ccc(NC(=O)c3ccc(C)c(C#Cc4cnc5[nH]ccc5c4)c3)cc2C(F)(F)F)CC1
residual binding, % of control [1]: 72%
level, % of control [2]: 0.75%
inhibition [3]: 9.2%
level, % of control [4]: 1.8%
residual binding, % of control [5]: 46%
residual binding, % of control [6]: 0%
level, % of control [7]: 32%
inhibition [8]: 100%
residual binding, % of control [9]: 96%
residual binding, % of control [10]: 45%
residual binding, % of control [11]: 0.1%
inhibition [12]: 0%
level, % of control [13]: 65%
inhibition [14]: 11%
residual binding, % of control [15]: 38%
level, % of control [16]: 0.3%
inhibition [17]: 93%
inhibition [18]: 28%
inhibition [19]: 48%
residual binding, % of control [20]: 100%
residual binding, % of control [21]: 0.85%
level, % of control [22]: 88%
residual binding, % of control [23]: 3.7%
residual binding, % of control [24]: 0.1%
inhibition [25]: 60%
% of control [26]: 0%
residual binding, % of control [27]: 2.6%
inhibition [28]: 84%
level, % of control [29]: 90%
residual binding, % of control [30]: 0.3%
residual binding, % of control [31]: 27%
inhibition [32]: 0%
level, % of control [33]: 74%
level, % of control [34]: 13%
inhibition [35]: 2.4%
residual binding, % of control [36]: 98%
residual binding, % of control [37]: 59%
inhibition [38]: 50%
residual binding, % of control [39]: 8.8%
residual binding, % of control [40]: 0%
inhibition [41]: 36%
